Test results from patent publication US12479832B2, “Liver targeting drug, pharmaceutical composition and use thereof” (priority 2019, dated 2025).
Several values for one entry are separate records, joined by “and”; a condition that tells them apart may be missing. Equal values may be shown once. Entries after “also recorded” stand apart in the source; their conditions may differ. Each block holds one compound with its values, some of them ahead of it.

Tests used:
hepatocellular carcinoma = conditions: cited from earlier work
hepatitis B virus = conditions: animal models; cited from earlier work
[1] = Pharmacokinetic study: Birinapant in plasma and liver after i.v. Birinapant or I-5-S in rats; conditions: rat, in vivo; for half-life: Birinapant measured after i.v. Birinapant 5 mg/kg, rats
Description: 1. Formulation of preparation and dosing: An appropriate amount of the test sample was precisely weighed, and mixed with an appropriate volume of a solvent (5% DMSO/5% Solutol/90% water) to obtain a clear solution or a homogeneous suspension. The preparation was administered to animals within 4 hours after formulation. The dosage formulation would be administered […] in accordance with facility standard operating procedures. The dosage volume would be determined by the body weights of the animals collected on the morning of administering. 2. Blood collection: Blood (approx. 0.2 ml per point in time) would be drawn each time from the jugular vein of every animal. All blood samples would be transferred to pre-cooled commercial EDTA-K2 test tubes, and kept on wet ice until they were centrifuged. 3. Plasma processing: Blood samples would be centrifuged (3200 rpm, 10 min) at approximately 4° C. Plasma was collected separately and transferred to pre-labeled PP tubes in wet ice at each point in time, and then immediately precipitated by ACN (6 IS) (the ratio of plasma:ACN was 1:4). Centrifugation (10 min, 12,000 rpm) was carried out again to obtain a supernatant. The supernatant was quickly frozen on dry ice and kept at -70±10° C. before LC/MS/MS analysis. 4. Liver processing: Liver tissues were collected at each point in time, washed twice with pre-cooled deionized water, and dried with filter paper. Liver tissues were immediately homogenized with 10-times volume of a methanol-water solution (1:2, v/v). After homogenization, a portion of liver tissue homogenate (e.g., 200 μL of homogenate) was immediately measured. After precipitated on wet ice, the samples were centrifuged, and a supernatant was collected and stored in a refrigerator at -70±10° C. before LC-MS/MS analysis. From the remaining liver homogenate, 800 μL of the homogenate was measured as a spare. […] After the solution of compound Birinapant was intravenously injected into rats, the concentrations of the active compound Birinapant in the rats were determined in the plasma and liver, respectively (see Table 1). After the solution of compound […] was intravenously injected into rats, the concentrations of the active compound Birinapant in the rats were determined in the plasma and liver, respectively (see Table 2).

[2] = cited from earlier work
[3] = Pharmacokinetic test of Compound A or B given orally or intravenously to rats (plasma and liver); type: in vivo; conditions: administered orally or intravenously
Description: To address the above-mentioned problems, the inventors have conducted intensive researches on analogues of Birinapant in the hope of reducing the toxic and side effects on the circulating system while maintaining or improving the therapeutic effect. […] Under the same conditions as described above, after rats were orally or intravenously injected with a solution of Compound A or B, the concentrations of Compound A or B and drug Birinapant in rats were measured in plasma and liver, respectively. […] Therefore, such prodrugs would have no value of application for Birinapant.

Compound: CC[C@H](NC(=O)[C@H](C)NC)C(=O)N1C[C@@H](O)C[C@H]1Cc1c(-c2[nH]c3cc(F)ccc3c2C[C@@H]2C[C@H](O)CN2C(=O)[C@H](CC)NC(=O)[C@H](C)NC)[nH]c2cc(F)ccc12 [Birinapant]
- survival in dosed mice (hepatocellular carcinoma): significantly prolonged
- inhibition of hepatitis B virus, particularly replication of HBsAg (hepatitis B virus): effective in inhibiting hepatitis B virus
- C0 ([1]; iv): 3470 ng/mL
- AUC0-24 ([1]; iv, 5 mg/kg): 40566 ng·h/g
- AUC0-inf ([1]; iv, 5 mg/kg): 76641 ng·h/g
- AUC0-last ([1]; iv, 5 mg/kg): 66712 ng·h/g
- AUC(0-inf) ([1]; iv, 5 mg/kg): 1090 ng·h/mL
- C0 ([1]; iv, 5 mg/kg): 3470 ng/mL
- Cmax ([1]; iv, 5 mg/kg): 3470 ng/mL and 4280 ng/g
- Kp ([1]; iv, 5 mg/kg): 64
- Tmax ([1]; iv, 5 mg/kg): 15 min
- Vd ([1]; iv, 5 mg/kg): 36.3 L/kg
- clearance ([1]; iv, 5 mg/kg): 76.3 mL/min/kg
- AUC(0-t) ([1]; iv, 5 mg/kg, AUC0-24): 967 ng·h/mL
- AUC(0-t) ([1]; iv, 5 mg/kg, AUC0-last): 1040 ng·h/mL
- half-life ([1]; iv, 5 mg/kg, liver): 1370 min
- half-life ([1]; iv, 5 mg/kg, plasma): 876 min
- side effect in patients ([2]; patients, high doses): paralysis of facial muscles
- safe dose ([2]; per week or twice weekly, cancer clinical trials): 17 mg/M2
- Dose Limited Toxicity ([2]; twice weekly, limited by paralysis of facial muscles, cancer clinical trials): 22 mg/M2

- excreted and recovered [3]: 100%
Compound: CC[C@H](NC(=O)[C@H](C)N(C)C(=O)OCc1ccccc1)C(=O)N1C[C@@H](O)C[C@H]1Cc1c(-c2[nH]c3cc(F)ccc3c2C[C@@H]2C[C@H](O)CN2C(=O)[C@H](CC)NC(=O)[C@H](C)N(C)C(=O)OCc2ccccc2)[nH]c2cc(F)ccc12 [Compound A]
- degradation by in vivo esterases to release the active drug Birinapant [3]: have not been degraded at all; also recorded: could not be degraded by in vivo esterase at all

- excreted and recovered [3]: 100%
Compound: CCCCCOC(=O)N(C)[C@@H](C)C(=O)N[C@@H](CC)C(=O)N1C[C@@H](O)C[C@H]1Cc1c(-c2[nH]c3cc(F)ccc3c2C[C@@H]2C[C@H](O)CN2C(=O)[C@H](CC)NC(=O)[C@H](C)N(C)C(=O)OCCCCC)[nH]c2cc(F)ccc12 [Compound B]
- degradation by in vivo esterases to release the active drug Birinapant [3]: have not been degraded at all; also recorded: could not be degraded by in vivo esterase at all

- reduction of the maximum concentration of Birinapant in the plasma in comparison to direct use of Birinapant ([1]; iv): 94%
- reduction of total drug exposure in the plasma in comparison to direct use of Birinapant ([1]; iv): 49%
- total exposure of Birinapant released in liver relative to direct use of Birinapant ([1]; iv): 2.4 times
- AUC Ratio (L/P) ([1]; iv, 5.97 mg/kg): 194
Compound: CC[C@H](NC(=O)[C@H](C)NC)C(=O)N1C[C@@H](OC(C)=O)C[C@H]1Cc1c(-c2[nH]c3cc(F)ccc3c2C[C@@H]2C[C@H](OC(C)=O)CN2C(=O)[C@H](CC)NC(=O)[C@H](C)NC)[nH]c2cc(F)ccc12 [Compound I-5-S]
- conversion of the prodrug into the active drug Birinapant [1]: metabolized into the active pharmaceutical ingredient Birinapant
